From US20190136188A1, “4HPR AND ITS USE IN THE CULTURING OF HEMATOPOIETIC STEM CELLS” (UNIVERSITY HEALTH NETWORK, priority 2016, published 2019)
“Also recorded” adds a separate entry of the source.

Tests used:
sorted HSC, MPP or GMP = assay: Colony forming assay (CFC) in methylcellulose; assay type: cell-based, human; conditions: for cloning efficiency of the HSC / relative number of colonies relative to vehicle control: 35 nM UM171 or 0.5 uM SR1, 10 days
Protocol: (A) Dose response of varying [4HPR] in CB at day 3 post-treatment showing 2 uM 4HPR gives the relative half maximal number of viable cells compared to control. All experiments following are at this 4HPR concentration unless otherwise indicated. […] (C) LC/MS was used to profile the ceramide (Cer), dihydroceramide (dhCer), sphingosine (sph), dihydrosphingosine (dhSph), S1P and dihydro-S1P (dhS1P) levels in lin− CB cells cultured for 8 days with control or 4HPR (n=2). […] (D) HSC, MPP, or GMP were sorted into methylcellulose for CFC assays in the presence of control or 4HPR and colonies were blindly scored following 10-11 days for (D) colonies/100 cells and ((E) colony distribution are shown (n=7). (F) Flow cytometry for erythroid (GlyA+) and monocytic (CD14+) markers in live cells from pooled CFC colonies were scored (n=6). (F) Relative number of colonies from CFC assays comparing the effect of 4HPR or ATRA (n=3) on sorted HSC, MPP or GMP. […]
(A) Representative flow cytometry analysis of the primitive hierarchy within the CD34+ fraction of day 8 cultured lin− CB cells after the indicated treatments for CD90 and CD45RA, n=4. B) The distribution of cultured CD34+CD90+CD45RA− (cHSC), CD34+CD90−CD45RA− (cMPP), and […] for the indicated conditions at day 8 of ex vivo culture following CD34 enrichment. Statistical significance assayed through unpaired t-test relative to vehicle control (Ctrl). The relative number of colonies resulting from (C) HSC or (D) MPP grown in methylcellulose CFC assays in the presence of vehicle control (−) or the indicated combination of 2 uM 4HPR, or 35 nM UM171 or 0.5 uM SR1 at 10 days. Statistical significance is calculated via unpaired t-test relative to ctrl (black) or to the presence of absence of 4HPR treatment for UM171 or SR1.
However, the functional consequence of 4HPR treatment on human cord blood primitive cells is unknown. A dose titration of 4HPR was performed on lineage-depleted CB (lin-CB) cells and 2 uM was calculated to give half maximal cell viability at 3 days post-treatment compared to vehicle control (ctrl), a concentration reported in cell lines to antagonize DEGS1 enzymatic function, and used for all subsequent experiments unless otherwise indicated (FIG. 1A). […] Next, we utilized the colony forming assay (CFC) for in vitro progenitor function to determine if 4HPR treatment alters functional output from isolated populations of CB HSPC. […] This is unsurprising as retinoic acid signaling is a potent differentiation signal in hematopoietic cells. Thus, 4HPR inhibition of sphingolipid homeostasis selectively enhances cloning efficiency in human HSC.
Given the CD34 compartment where functional HSC should reside following ex vivo expansion is critical to blood production, we asked if there were immunophenotypic alterations following 4HPR treatment. StemRegenin-1 (SR1) or UM171 are two molecules whose action on CB has been reported to expand CD34+ cells dramatically and lead to increase reconstitution in xenotransplantation (Fares, et al Science, 2014: Boitano, Science, 2010). We sought to ask if limiting CD34+ expansion with 4HPR treatment is synergistic with these known agonists of CB ex vivo expansion. Lin− CB were cultured with these 3 small molecules alone or in combination for 8 days and the CD34 compartment was isolated and analyzed by flow cytometry further with CD90 and CD45RA to look at immunophenotypic cultured HSC (cHSC), MPP (cMPP) and committed progenitors (cProg). These populations were sorted from lin-CB at […] following expansion and transplanted into NSG mice for 16 weeks to ascertain that cProg cells are committed progenitors, while cHSC and cMPP retain multipotency following culture (FIG. 8A, B). […]

sorted HSC and MPP = assay: 8 day ex vivo expansion of sorted HSC and MPP, CD34+ compartment by flow cytometry; assay type: cell-based, human; conditions: D8 after ex vivo expansion
From the text: B) Lymphoid and C) myeloid engraftment from (A) at 16 weeks post-transplantion. […] F) Flow cytometry plots showing the CD34+ population from 8 day cultured HSC.
Given the CD34 compartment where functional HSC should reside following ex vivo expansion is critical to blood production, we asked if there were immunophenotypic alterations following 4HPR treatment. StemRegenin-1 (SR1) or UM171 are two molecules whose action on CB has been reported to expand CD34+ cells dramatically and lead to increase reconstitution in xenotransplantation (Fares, et al Science, 2014: Boitano, Science, 2010). We sought to ask if limiting CD34+ expansion with 4HPR treatment is synergistic with these known agonists of CB ex vivo expansion. Lin− CB were cultured with these 3 small molecules alone or in combination for 8 days and the CD34 compartment was isolated and analyzed by flow cytometry further with CD90 and CD45RA to look at immunophenotypic cultured HSC (cHSC), MPP (cMPP) and committed progenitors (cProg). […] To further elucidate the specific action of 4HPR on HSC over MPP and compare this to UM171 and SR1, sorted HSC and MPP were put into ex vivo expansion conditions for 8 days with the same treatments as in FIG. 7A, B and their growth and CD34+ compartment were monitored by flow cytometry (FIG. 8D-F). […]

## CC1=C(/C=C/C(C)=C/C=C/C(C)=C/C(=O)O)C(C)(C)CCC1 [ATRA, all-trans retinoic acid]
Sorted HSC, MPP or GMP; ATRA treatment, HSC, MPP, GMP
  colony output: decreases colony output from all HSPC populations

## CC(C)n1cnc2c(NCCc3ccc(O)cc3)nc(-c3csc4ccccc34)nc21 [SR1, StemRegenin-1]
Sorted HSC and MPP
  primitive CD34+ cells from sorted HSC and MPP: promote CD34+ expansion more from MPP than HSC; also recorded: occurs primarily in sorted MPP, not HSC
Sorted HSC, MPP or GMP
  cloning efficiency of the HSC: both decreased cloning efficiency of the HSC
  relative number of colonies relative to vehicle control: Neither UM171 nor SR1 altered relative number of colonies

## Cn1nnc(-c2ccc3c(c2)[nH]c2nc(Cc4ccccc4)nc(N[C@H]4CC[C@H](N)CC4)c23)n1 [UM171, (1r,4r)-N1-(2-benzyl-7-(2-methyl-2H-tetrazol-5-yl)-9H-pyrimido[4,5-b]indol-4-yl)cyclohexane-1,4-diamine]
Sorted HSC and MPP
  primitive CD34+ cells from sorted HSC and MPP: promote CD34+ expansion more from MPP than HSC; also recorded: dramatically increases primitive CD34+ from both HSC and MPP
Sorted HSC, MPP or GMP
  cloning efficiency of the HSC: both decreased cloning efficiency of the HSC
  relative number of colonies relative to vehicle control: Neither UM171 nor SR1 altered relative number of colonies
